Laboratory results as given in PubChem BioAssay (NCI).
Where “and” joins values, the source holds several entries; their conditions need not be identical. Identical values can stand only once.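 Each compound was tested at five concentrations against cells in 96-well plates for 48 hours. GI50 is the concentration that inhibits growth by half. TGI: total growth inhibition.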

Tests used:
Test in all cases: NCI-60 cell line screen, 48 h
[1] = system: HCT-116 colon
[2] = system: SK-MEL-28 melanoma
[3] = system: SF-268 CNS
[4] = system: KM12 colon
[5] = system: LOX IMVI melanoma
[6] = system: CCRF-CEM leukemia
[7] = system: NCI/ADR-RES ovarian
[8] = system: DU-145 prostate
[9] = system: EKVX NSCLC
[10] = system: UACC-257 melanoma

SMILES	GI50 [1]	TGI [1]	GI50 [2]	TGI [2]	GI50 [3]	TGI [3]	GI50 [4]	TGI [4]	GI50 [5]	TGI [5]	GI50 [6]	TGI [6]	GI50 [7]	TGI [7]	GI50 [8]	TGI [8]	GI50 [9]	TGI [9]	GI50 [10]	TGI [10]
COc1ccc(C2C3=C(COC3=O)N(CCO)c3cc4c(cc32)OCCO4)cc1OC (configuration not stated)	1.96 µM	> 50 µM	> 50 µM	> 50 µM	4.3 µM	> 50 µM	1.35 µM	> 38.7 µM	3.84 µM	> 50 µM	2.02 µM	> 50 µM	11.4 µM	> 50 µM	1.93 µM	14.9 µM	5.98 µM	> 50 µM	2.4 µM	> 50 µM
O=C(Nc1ccc(S(=O)(=O)NC2CCCCCC2)cc1)C(c1ccccc1)S(=O)(=O)c1ccc(F)cc1 (configuration not stated)	0.185 µM	1.7 µM	0.245 µM	1.02 µM	0.933 µM	6.11 µM	0.321 µM	1.96 µM	0.112 µM	0.422 µM	0.577 µM	> 100 µM	1.24 µM	4.66 µM	0.261 µM	2.68 µM	0.377 µM	2.95 µM	0.621 µM	2.98 µM
COc1ccc(-n2sc(=O)n(Cc3ccc(COC(=O)C(C)c4ccc(CC(C)C)cc4)cc3)c2=O)cc1 (configuration not stated)	0.979 µM	2.08 µM	3.02 µM	9.53 µM	5.82 µM	12.2 µM	7.7 µM	14.6 µM	0.943 µM	1.9 µM	0.567 µM	3.74 µM	7.5 µM	20 µM	1.85 µM	6.34 µM	7.36 µM	14.3 µM	2.02 µM	8.81 µM
C/C(=N\Nc1cccc(Cl)n1)c1ccccn1	0.401 µM	> 100 µM	1.65 µM	> 100 µM	0.673 µM	15.2 µM	0.548 µM	> 100 µM	0.492 µM	> 25 µM	0.365 µM	> 25.2 µM	0.441 µM	12.8 µM	0.692 µM	> 100 µM	0.411 µM	18.6 µM	2.27 µM	7.51 µM
O=C(CC1(O)C(=O)Nc2c(Cl)ccc(Cl)c21)c1ccc(C2CC2)cc1 (configuration not stated)	0.375 µM	6.05 µM	2.51 µM	21.9 µM	2.98 µM	23.4 µM	0.445 µM	15.9 µM	0.392 µM	14 µM	0.843 µM	20.1 µM	0.406 µM	14.7 µM	1.63 µM	17.8 µM	2.15 µM	20.7 µM	2.48 µM	24.7 µM
O=C1c2cccc3cc([N+](=O)[O-])cc(c23)C(=O)N1O	–	> 100 µM	–	> 100 µM	–	> 100 µM	–	61.7 µM	–	> 100 µM	–	> 100 µM	–	> 100 µM	–	> 100 µM	–	> 100 µM	–	> 100 µM
CCN(CC)c1ccc2nc3c4ccccc4c(=NC(=O)c4ccccc4-c4c5ccc(N(CC)CC)cc5[o+]c5cc(N(CC)CC)ccc45)cc-3oc2c1	1.88 µM	> 22.4 µM	5.06 µM	12.4 µM	4.69 µM	19.4 µM	2.25 µM	7.94 µM	1.69 µM	4.49 µM	2.1 µM	13.4 µM	2.19 µM	10.6 µM	1.75 µM	3.46 µM	3.52 µM	> 32.6 µM	1.46 µM	3.4 µM
CCOc1cc(/C=N\NC(=O)N/N=C/c2ccc(O)c(OCC)c2)ccc1O	0.866 µM	> 100 µM	10.3 µM	> 100 µM	5.69 µM	> 100 µM	1.01 µM	> 100 µM	2.45 µM	> 100 µM	2.51 µM	> 100 µM	3.47 µM	> 100 µM	2.21 µM	> 100 µM	4.38 µM	> 100 µM	72.1 µM	> 100 µM
CCc1ccccc1-n1c(N)c(C#N)c(-c2ccc(OC)c(OC)c2)c(C#N)c1=O	17 µM	31.1 µM	20.1 µM	41.8 µM	16.2 µM	31.6 µM	16.9 µM	34.6 µM	23.6 µM	92.2 µM	> 100 µM	> 100 µM	31.9 µM	> 100 µM	29.6 µM	> 100 µM	41.1 µM	> 100 µM	23.9 µM	72.6 µM
COc1cc(/C=C/C(=O)c2ccc(Nc3nc(Nc4ccccc4)nc(Nc4ccc(Cl)cc4)n3)cc2)cc(OC)c1OC	2.68 µM	> 32.5 µM	14.5 µM	> 32.5 µM	23.8 µM	> 32.5 µM	8.83 µM	> 32.5 µM	7.19 µM	> 32.5 µM	4.12 µM	> 32.5 µM	31.5 µM	> 32.5 µM	> 32.5 µM	> 32.5 µM	24.1 µM	> 32.5 µM	> 32.5 µM	> 32.5 µM
CS(=O)(=O)c1nc(Cl)c(Cl)c(C#N)c1Cl	–	4.47 µM	–	4.75 µM	–	21.9 µM	–	17.6 µM	–	4.3 µM	–	> 100 µM	–	6.19 µM	–	21.4 µM	–	27.4 µM	–	5.52 µM
CC[C@@]1(OC(=O)CN)C(=O)OCc2c1cc1n(c2=O)Cc2cc3c(N)c4c(cc3nc2-1)OCO4	0.000318 µM	> 100 µM	0.0409 µM and 0.119 µM	> 100 µM	< 0.0001 µM	0.125 µM and 0.183 µM	0.0136 µM and 0.0192 µM	0.182 µM and 1.27 µM	< 0.0001 µM	–	< 0.0001 µM	0.551 µM	0.000145 µM	0.0193 µM	< 0.0001 µM	–	0.0808 µM	–	0.0158 µM	0.228 µM
C=C(C)[C@@H]1CC[C@]2(C)[C@H](C=CC3=C4C[C@@](C)(CO)CC[C@]4(C)CC[C@]32C)[C@@]1(C)CCCN	1.69 µM	3.21 µM	1.82 µM	3.25 µM	1.61 µM	3.25 µM	1.6 µM	3.02 µM	1.37 µM	2.7 µM	2.12 µM	5.56 µM	1.74 µM	3.37 µM	1.72 µM	3.15 µM	1.6 µM	3.1 µM	1.87 µM	3.66 µM
